Here are results for 20 compounds from ChEMBL document CHEMBL3627624, “New natural product carbonic anhydrase inhibitors incorporating phenol moieties” (Bioorg Med Chem, 2015).

In experiment [1] the target is T1, Carbonic anhydrase 1 (Homo sapiens, UniProt P00915). Nature of the experiment: Inhibition of human recombinant carbonic anhydrase 1 preincubated for 15 mins at room temperature/6 hrs at 4 deg C by stopped-flow CO2 hydration assay.
The target in experiment [2] is T2, Carbonic anhydrase 2 (Homo sapiens, UniProt P00918). Nature of the experiment: Inhibition of human recombinant carbonic anhydrase 2 preincubated for 15 mins at room temperature/6 hrs at 4 deg C by stopped-flow CO2 hydration assay.
The target of experiment [3] is T3, Carbonic anhydrase 4 (Homo sapiens, UniProt P22748). The experiment is described as follows: Inhibition of human recombinant carbonic anhydrase 4 preincubated for 15 mins at room temperature/6 hrs at 4 deg C by stopped-flow CO2 hydration assay.
T3 sequence (P22748 whole entry): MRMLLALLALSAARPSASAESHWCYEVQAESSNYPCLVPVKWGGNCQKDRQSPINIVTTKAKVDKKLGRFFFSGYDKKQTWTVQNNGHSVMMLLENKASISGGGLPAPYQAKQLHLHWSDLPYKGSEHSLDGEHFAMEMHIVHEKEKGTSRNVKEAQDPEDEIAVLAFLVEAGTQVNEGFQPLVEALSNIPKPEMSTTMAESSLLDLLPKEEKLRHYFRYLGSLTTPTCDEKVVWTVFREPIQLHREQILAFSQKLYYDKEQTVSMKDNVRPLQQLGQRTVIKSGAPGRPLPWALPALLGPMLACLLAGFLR
The target of the next experiment is Carbonic anhydrase 7 (Homo sapiens, UniProt P43166). The experiment is described as follows: Inhibition of human recombinant carbonic anhydrase 7 preincubated for 15 mins at room temperature/6 hrs at 4 deg C by stopped-flow CO2 hydration assay.
Chain of Carbonic anhydrase 7 (P43166 whole entry): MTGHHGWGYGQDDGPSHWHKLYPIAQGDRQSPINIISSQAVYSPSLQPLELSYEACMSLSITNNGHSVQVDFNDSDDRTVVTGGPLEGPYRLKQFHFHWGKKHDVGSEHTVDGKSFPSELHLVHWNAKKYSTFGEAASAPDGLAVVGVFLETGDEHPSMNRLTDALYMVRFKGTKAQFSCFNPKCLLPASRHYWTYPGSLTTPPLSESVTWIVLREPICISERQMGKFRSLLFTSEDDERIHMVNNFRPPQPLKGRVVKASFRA
For experiment [4], the target named is T4, Carbonic anhydrase 12 (Homo sapiens, UniProt O43570). Nature of the experiment: Inhibition of human recombinant carbonic anhydrase 12 preincubated for 15 mins at room temperature/6 hrs at 4 deg C by stopped-flow CO2 hydration assay.
T4 sequence (O43570 whole entry): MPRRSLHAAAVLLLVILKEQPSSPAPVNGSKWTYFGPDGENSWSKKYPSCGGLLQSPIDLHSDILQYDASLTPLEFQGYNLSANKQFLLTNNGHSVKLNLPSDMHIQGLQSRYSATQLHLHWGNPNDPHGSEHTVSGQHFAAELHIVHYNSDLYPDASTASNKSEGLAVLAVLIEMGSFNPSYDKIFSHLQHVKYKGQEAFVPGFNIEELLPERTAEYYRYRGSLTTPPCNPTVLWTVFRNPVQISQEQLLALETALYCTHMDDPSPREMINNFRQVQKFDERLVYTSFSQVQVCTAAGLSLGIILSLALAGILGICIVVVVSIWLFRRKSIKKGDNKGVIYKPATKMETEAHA
In experiment [5] the target is T1, Carbonic anhydrase 1. The experiment is described as follows: Inhibition of human recombinant carbonic anhydrase 1.
The target of experiment [6] is T2, Carbonic anhydrase 2. Nature of the experiment: Inhibition of human recombinant carbonic anhydrase 2.
The target in experiment [7] is T4, Carbonic anhydrase 12. Nature of the experiment: Inhibition of human recombinant carbonic anhydrase 12.
Experiment [8] has as its target T3, Carbonic anhydrase 4. Nature of the experiment: Inhibition of human recombinant carbonic anhydrase 4.

T1 sequence (P00915 whole entry): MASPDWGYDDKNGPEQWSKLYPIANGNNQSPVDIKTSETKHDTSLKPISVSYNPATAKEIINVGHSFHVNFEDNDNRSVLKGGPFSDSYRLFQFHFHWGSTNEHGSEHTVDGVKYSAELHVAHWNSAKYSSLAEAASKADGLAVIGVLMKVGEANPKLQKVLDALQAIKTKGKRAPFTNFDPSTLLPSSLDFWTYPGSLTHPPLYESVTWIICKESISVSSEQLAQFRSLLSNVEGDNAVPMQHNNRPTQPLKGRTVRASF

On to `O=C(/C=C/c1ccc(O)cc1)OC[C@H]1O[C@@H](Oc2c(-c3ccc(O)cc3)oc3cc(O)cc(O)c3c2=O)[C@H](OC(=O)/C=C/c2ccc(O)cc2)[C@@H](O)[C@@H]1O`, for which the Ki at Carbonic anhydrase 1 [1] is more than 10000 nM; at Carbonic anhydrase 2 [2], 8790 nM; at Carbonic anhydrase 4 [3], 344 nM; at Carbonic anhydrase 7, 4.7 nM; at Carbonic anhydrase 12 [4], 409 nM.
In the same order, the values of `CC(=O)O[C@@H]1[C@@H](OC(=O)/C=C/c2ccc(O)cc2)[C@H](Oc2c(-c3ccc(O)cc3)oc3cc(O)cc(O)c3c2=O)O[C@H](COC(=O)/C=C/c2ccc(O)cc2)[C@H]1OC(C)=O` are more than 10000 nM, 6860 nM, 62.2 nM, 26.6 nM and 400 nM.
Take `O=C1c2c(O)cc(O)cc2O[C@H](c2ccc(O)c(O)c2)[C@H]1O` [(+)-TAXIFOLIN]: the Ki at Carbonic anhydrase 1 [1] is more than 10000 nM.
With `O=c1c(O[C@@H]2O[C@H](CO)[C@@H](O)[C@H](O)[C@H]2O)c(-c2ccc(O)cc2)oc2cc(O)cc(O)c12` [ASTRAGALIN], the Ki on Carbonic anhydrase 1 [1] was more than 10000 nM; at Carbonic anhydrase 2 [2], 168 nM; on Carbonic anhydrase 4 [3] it was 5590 nM; on Carbonic anhydrase 7, 424 nM; on Carbonic anhydrase 12 [4] it was 4.9 nM.
Consider `COc1ccc(-c2coc3cc(O)cc(O)c3c2=O)cc1` [BIOCHANIN], for which the Ki was more than 10000 nM at Carbonic anhydrase 1 [1]; more than 10000 nM at Carbonic anhydrase 2 [2]; 7080 nM on Carbonic anhydrase 4 [3]; 372 nM at Carbonic anhydrase 7; 52.5 nM at Carbonic anhydrase 12 [4].
With `O=c1cc(-c2ccccc2)oc2cc(O)cc(O)c12` [CHRYSIN], the Ki at Carbonic anhydrase 1 [1] is more than 10000 nM; at Carbonic anhydrase 2 [2] it was more than 10000 nM; on Carbonic anhydrase 4 [3] it was 538 nM; on Carbonic anhydrase 7 it was 171 nM; on Carbonic anhydrase 12 [4], 34.7 nM.
As to `O=c1c(-c2ccc(O)cc2)coc2cc(O)ccc12` [DAIDZEIN], the Ki was more than 10000 nM at Carbonic anhydrase 1 [1]; more than 10000 nM on Carbonic anhydrase 2 [2]; 719 nM on Carbonic anhydrase 4 [3]; 4.2 nM on Carbonic anhydrase 7; 56.4 nM on Carbonic anhydrase 12 [4].
For the compound `O=C1C[C@@H](c2ccc(O)c(O)c2)Oc2cc(O)cc(O)c21` [ERIODICTYOL], the Ki at Carbonic anhydrase 1 [1] is more than 10000 nM; at Carbonic anhydrase 2 [2], more than 10000 nM; at Carbonic anhydrase 4 [3], 72.8 nM; on Carbonic anhydrase 7, 4.3 nM; on Carbonic anhydrase 12 [4], 31.1 nM.
Regarding `O=c1c(O)c(-c2ccccc2)oc2cc(O)cc(O)c12` [GALANGIN], the Ki is more than 10000 nM on Carbonic anhydrase 1 [1]; more than 10000 nM at Carbonic anhydrase 2 [2]; 568 nM at Carbonic anhydrase 4 [3]; 24.5 nM on Carbonic anhydrase 7; 41.8 nM on Carbonic anhydrase 12 [4].
As for `COc1ccc([C@@H]2CC(=O)c3c(O)cc(O)cc3O2)cc1O` [HESPERETIN], the Ki on Carbonic anhydrase 1 [1] was more than 10000 nM; on Carbonic anhydrase 2 [2] it was more than 10000 nM; at Carbonic anhydrase 4 [3], 102 nM; at Carbonic anhydrase 7, 3.3 nM; on Carbonic anhydrase 12 [4], 454 nM.
In the case of `O=c1c(O[C@@H]2O[C@H](CO)[C@@H](O)[C@H](O)[C@H]2O)c(-c2ccc(O)c(O)c2)oc2cc(O)cc(O)c12` [ISOQUERCETIN], the Ki is more than 10000 nM on Carbonic anhydrase 1 [1]; 6210 nM on Carbonic anhydrase 2 [2]; 75.7 nM at Carbonic anhydrase 4 [3]; 3.8 nM at Carbonic anhydrase 7; 52.1 nM on Carbonic anhydrase 12 [4]; more than 10000 nM at Carbonic anhydrase 1 [5]. For the same compound, the Ki at Carbonic anhydrase 2 [6] was found to be 410 nM; on Carbonic anhydrase 12 [7], 170 nM.
With `COc1cc(-c2oc3cc(O)cc(O)c3c(=O)c2O)ccc1O` [ISORHAMNETIN], the Ki on Carbonic anhydrase 1 [1] was more than 10000 nM; at Carbonic anhydrase 2 [2], more than 10000 nM; on Carbonic anhydrase 4 [3] it was 213 nM; on Carbonic anhydrase 7 it was 4.4 nM; on Carbonic anhydrase 12 [4], 54.9 nM; on Carbonic anhydrase 1 [5] it was more than 10000 nM. For the same compound, the Ki turned out to be 440 nM at Carbonic anhydrase 2 [6] and 220 nM on Carbonic anhydrase 12 [7].
Regarding `O=c1c(O)c(-c2ccc(O)cc2)oc2cc(O)cc(O)c12` [KAEMPFEROL], the Ki was more than 10000 nM on Carbonic anhydrase 1 [1]; 9530 nM at Carbonic anhydrase 2 [2]; more than 10000 nM on Carbonic anhydrase 4 [3]; 25 nM on Carbonic anhydrase 7; 146 nM on Carbonic anhydrase 12 [4].
Turning to `O=C(/C=C/c1ccc(O)c2c1[C@H](C(=O)O)[C@@H](c1ccc(O)c(O)c1)O2)O[C@H](Cc1ccc(O)c(O)c1)C(=O)O` [LITHOSPERMIC ACID], the Ki is more than 10000 nM at Carbonic anhydrase 1 [1], more than 10000 nM on Carbonic anhydrase 2 [2], 101 nM at Carbonic anhydrase 4 [3] and 268 nM at Carbonic anhydrase 7.
On to `O=c1cc(-c2ccc(O)c(O)c2)oc2cc(O)cc(O)c12` [LUTEOLIN], for which the Ki on Carbonic anhydrase 1 [1] was more than 10000 nM; on Carbonic anhydrase 2 [2], 3690 nM; on Carbonic anhydrase 7, 4.7 nM; on Carbonic anhydrase 12 [4], 60.3 nM; at Carbonic anhydrase 4 [8], 293 nM.
For `O=C1C[C@@H](c2ccc(O)cc2)Oc2cc(O)cc(O)c21` [NARINGENIN], the Ki on Carbonic anhydrase 1 [1] was more than 10000 nM; at Carbonic anhydrase 2 [2] it was more than 10000 nM; at Carbonic anhydrase 4 [3], 79.5 nM; at Carbonic anhydrase 7, 4.3 nM; at Carbonic anhydrase 12 [4] it was 44.3 nM.
In the case of `O=c1c(-c2ccc(O)cc2)coc2c([C@@H]3O[C@H](CO)[C@@H](O)[C@H](O)[C@H]3O)c(O)ccc12` [PUERARIN], the inhibitory constant (Ki) at Carbonic anhydrase 1 [1] was more than 10000 nM; on Carbonic anhydrase 2 [2] it was more than 10000 nM; on Carbonic anhydrase 4 [3] it was more than 10000 nM; at Carbonic anhydrase 7, 453 nM.
`C[C@@H]1O[C@@H](Oc2c(-c3ccc(O)c(O)c3)oc3cc(O)cc(O)c3c2=O)[C@H](O)[C@H](O)[C@H]1O` [QUERCETIN-3-O-RHAMNOSIDE]: the Ki is more than 10000 nM on Carbonic anhydrase 1 [1]; 6370 nM on Carbonic anhydrase 2 [2]; 67.3 nM at Carbonic anhydrase 4 [3]; 3.9 nM on Carbonic anhydrase 7; 43.5 nM on Carbonic anhydrase 12 [4].
`O=C(/C=C/c1ccc(O)c(O)c1/C=C/c1ccc(O)c(O)c1)O[C@H](Cc1ccc(O)c(O)c1)C(=O)O` [SALVIANOLIC ACID A]: the Ki on Carbonic anhydrase 1 [1] was more than 10000 nM; at Carbonic anhydrase 2 [2], 9590 nM; at Carbonic anhydrase 4 [3], 66.6 nM; at Carbonic anhydrase 7, 71.4 nM; at Carbonic anhydrase 12 [4], 39.8 nM.
In the same order, the values of `O=C(/C=C/c1ccc(O)cc1)OC[C@H]1O[C@@H](Oc2c(-c3ccc(O)cc3)oc3cc(O)cc(O)c3c2=O)[C@H](O)[C@@H](O)[C@@H]1O` [TILIROSIDE] are more than 10000 nM, more than 10000 nM, 5470 nM, 4.6 nM and 134 nM.
